The subject of the test is BDF1 mice, Adenocarcinoma 755 s.c., tumor weight T/C. Put plainly: NCI In Vivo Anticancer Drug Screen. Data for tumor model Adenocarcinoma 755 (subcutaneous) in B6D2F1 (BDF1) mice. As to conditions: endpoint: mean tumor weight, higher = larger tumour. In short, it runs like this: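 Values express treated (T) relative to vehicle-dosed control (C) animals, based on survival or tumour size measured after compound treatment of mice bearing a transplanted tumour.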

Where “and” joins values, the source holds several entries; their conditions need not be identical. Equal values may be shown once.

For `Nc1nc(SCc2ccc(Br)cc2)c2ncn(C3OC(CO)C(O)C3O)c2n1` (stereo unspecified), the T/C was 80 % of control (dose: 6.0 mg/kg/injection, schedule: Q01DX011 (ip), vehicle: methylcellulose (MC)); 32 % of control (dose: 25.0 mg/kg/injection, schedule: Q01DX011 (ip), vehicle: methylcellulose (MC)); 41 % of control (dose: 30.0 mg/kg/injection, schedule: Q01DX011 (ip), vehicle: methylcellulose (MC)); 5 % of control (dose: 75.0 mg/kg/injection, schedule: Q01DX011 (ip), vehicle: methylcellulose (MC)).
On to `O=S(=O)(O)c1cccnc1`, for which the T/C was 68 % of control (dose: 19.63 mg/kg/injection, schedule: Q01DX011 (ip), vehicle: carboxymethylcellulose (CMC)); 91 % of control and 101 % of control (dose: 37.36 mg/kg/injection, schedule: Q01DX011 (ip), vehicle: carboxymethylcellulose (CMC)); 99 % of control (dose: 39.25 mg/kg/injection, schedule: Q01DX011 (ip), vehicle: carboxymethylcellulose (CMC)); 108 % of control (dose: 62.5 mg/kg/injection, schedule: Q01DX011 (ip), vehicle: methylcellulose (MC)); 152 % of control (dose: 78.5 mg/kg/injection, schedule: Q01DX011 (ip), vehicle: carboxymethylcellulose (CMC)); 76 % of control (dose: 125.0 mg/kg/injection, schedule: Q01DX011 (ip), vehicle: methylcellulose (MC)). The T/C is, setting by setting: (dose: 157.0 mg/kg/injection, schedule: Q01DX011 (ip), vehicle: carboxymethylcellulose (CMC)) 79 % of control; (dose: 250.0 mg/kg/injection, schedule: Q01DX011 (ip), vehicle: methylcellulose (MC)) 95 % of control; (dose: 298.9 mg/kg/injection, schedule: Q01DX011 (ip), vehicle: carboxymethylcellulose (CMC)) 120 % of control.
Consider `CCOC(=O)c1cnc(SCc2ccccc2Cl)nc1N1CC1`, for which the T/C reads like this: (dose: 8.0 mg/kg/injection, schedule: Q01DX011 (ip), vehicle: carboxymethylcellulose (CMC)) 54 % of control; (dose: 8.0 mg/kg/injection, schedule: Q01DX011 (ip), vehicle: other) 110 % of control; (dose: 16.0 mg/kg/injection, schedule: Q01DX011 (ip), vehicle: carboxymethylcellulose (CMC)) 75 % of control; (dose: 16.0 mg/kg/injection, schedule: Q01DX011 (ip), vehicle: other) 70 % of control; (dose: 28.0 mg/kg/injection, schedule: Q01DX011 (ip), vehicle: carboxymethylcellulose (CMC)) 29 % of control; (dose: 28.0 mg/kg/injection, schedule: Q01DX011 (ip), vehicle: other) 62 % of control. Moreover, the T/C by setting is: (dose: 56.0 mg/kg/injection, schedule: Q01DX011 (ip), vehicle: carboxymethylcellulose (CMC)) 16 % of control; (dose: 56.0 mg/kg/injection, schedule: Q01DX011 (ip), vehicle: other) 22 % of control.
On to `C[C@]1(O)CC[C@H]2[C@@H]3CC[C@@H]4C[C@H](O)CC[C@]4(C)[C@@]3(F)[C@@H](O)C[C@@]21C`, for which the T/C is 73 % of control (dose: 25.0 mg/kg/injection, schedule: Q01DX011 (sc), vehicle: steriod suspending solution); 90 % of control (dose: 200.0 mg/kg/injection, schedule: Q01DX011 (sc), vehicle: steriod suspending solution); 87 % of control (dose: 400.0 mg/kg/injection, schedule: Q01DX011 (sc), vehicle: steriod suspending solution).
Consider `CC(=O)NNC(=O)c1ccccn1`, for which the T/C runs as follows: (dose: 75.0 mg/kg/injection, schedule: Q01DX011 (ip), vehicle: water) 68 % of control; (dose: 100.0 mg/kg/injection, schedule: Q01DX011 (ip), vehicle: water) 37 % of control.

Values taken from PubChem BioAssay AID180 (DTP/NCI, 2004).
